According to patent US7425557B2, “Inhibitors of glycogen synthase kinase 3” (Novartis Vaccines and Diagnostics, Inc., priority 1998, dated 2008):

molecular target: human GSK3β (Homo sapiens, UniProt P49841); assay: Screening for GSK3 inhibitory activity using a cell-free assay; format: biochemical; details: read-out: IC50 with respect to GSK3
Procedure: This amount represents the amount of radiolabeled phosphate incorporated into the peptide substrate.
The captured radiolabeled peptide substrate can be quantitated in a scintillation counter using known methods. […] If an inhibitor is present during the reaction, GSK3 activity will be reduced, and a smaller quantity of radiolabeled phosphate will thus be incorporated into the peptide substrate.
Pyrimidine and pyridine compounds of the present invention were dissolved in DMSO, then tested for inhibition of human GSK3β (the nucleotide sequence for human GSK3β appears in GenBank under Accession No. L33801).
While the reaction was proceeding, streptavidin-coated Labsystems “Combiplate 8” capture plates (Labsystems, Helsinki, Finland) were blocked by incubating them with 300 μl/well of PBS containing 1% bovine serum albumin for at least one hour at room temperature. The blocking solution was then removed by aspiration, and the capture plates were filled with 100 ul/well of stopping reagent (50 μM ATP/20 mM EDTA).
When the three hour enzyme reaction was finished, triplicate 100 μl aliquots of each reaction mix were transferred to three wells containing stopping solution, one well on each of the three capture plates, and the well contents were mixed well. […] Finally, 200 μl of Microscint-20 scintillation fluid was added to each well of the plate. The plates were coated with plate sealers, then left on a shaker for 30 minutes. Each capture plate was counted in a Packard TopCount scintillation counter (Meridian, Conn.) and the results were plotted as a function of compound concentration.

Chain of human GSK3β (P49841 whole entry): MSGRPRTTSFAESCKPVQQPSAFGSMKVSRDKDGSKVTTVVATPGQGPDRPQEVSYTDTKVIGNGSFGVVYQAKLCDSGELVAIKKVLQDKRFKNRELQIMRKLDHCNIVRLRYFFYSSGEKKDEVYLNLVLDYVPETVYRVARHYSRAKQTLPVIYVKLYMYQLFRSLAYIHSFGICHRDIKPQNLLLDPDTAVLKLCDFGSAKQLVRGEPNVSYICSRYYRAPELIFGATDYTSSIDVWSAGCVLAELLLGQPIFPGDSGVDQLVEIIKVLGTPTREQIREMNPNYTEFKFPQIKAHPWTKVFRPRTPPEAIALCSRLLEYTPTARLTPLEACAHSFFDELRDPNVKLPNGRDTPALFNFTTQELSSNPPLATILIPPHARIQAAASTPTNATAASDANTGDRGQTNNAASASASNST

Row | IC50 | SMILES
1 | ≤ 1 µM | O=c1ccccn1-c1cnc(NCCNc2ccc([N+](=O)[O-])cn2)nc1-c1ccc(Cl)cc1Cl
2 | ≤ 1 µM | N#Cc1ccc(-c2nc(NCCNc3ccc([N+](=O)[O-])cn3)ncc2C(=O)OCCN(CCO)CCO)cc1
3 | ≤ 1 µM | CN(C)CCOC(=O)c1cnc(NCCNc2ccc([N+](=O)[O-])c(N)n2)nc1-c1ccc(C#N)cc1
4 | ≤ 1 µM | CN(C)CCOC(=O)c1cnc(NCCNc2ccc([N+](=O)[O-])cn2)nc1-c1ccc(C#N)cc1
5 | ≤ 10 µM | NC(=O)c1ccc(-c2ccnc(NCCc3ccc4c(c3)OCO4)n2)cc1
6 | ≤ 10 µM | NC(=O)c1ccc(-c2ccnc(NCCc3cccc(Cl)c3)n2)cc1
7 | ≤ 10 µM | NC(=O)c1ccc(-c2ccnc(NCCNc3nc4ccccc4s3)n2)cc1
8 | ≤ 1 µM | CN(C)CCCCOC(=O)c1cnc(NCCNc2ccc([N+](=O)[O-])cn2)nc1-c1ccc(C#N)cc1
9 | ≤ 1 µM | Nc1nc(NCCNc2ncc(N3C(=O)c4cccnc4C3=O)c(-c3ccc(Cl)cc3Cl)n2)ccc1[N+](=O)[O-]
10 | ≤ 1 µM | N#Cc1ccc(NCCNc2ncc(-n3cc(Cl)ccc3=O)c(-c3ccc(Cl)cc3Cl)n2)nc1
11 | ≤ 1 µM | Nc1nc(NCCNc2ncc(C(=O)O)c(-c3ccc([N+](=O)[O-])cc3)n2)ccc1[N+](=O)[O-]
12 | ≤ 1 µM | Cc1cn(-c2cnc(NCCNc3ccc([N+](=O)[O-])c(N)n3)nc2-c2ccc(Cl)cc2Cl)c(C)n1
13 | ≤ 1 µM | Cc1nccn1-c1cnc(NCCNc2ccc([N+](=O)[O-])c(N)n2)nc1-c1ccc(Cl)cc1Cl
14 | ≤ 1 µM | O=[N+]([O-])c1ccc(NCCNc2ncc(-n3cccn3)c(-c3ccc(Cl)cc3Cl)n2)nc1
15 | ≤ 10 µM | CCc1cnc(NCCNc2ccccn2)nc1-c1ccccc1
16 | ≤ 10 µM | O=[N+]([O-])c1ccc(NCCNc2nccc(NCc3ccc(Cl)cc3Cl)n2)nc1
17 | ≤ 1 µM | CCOC(=O)c1cnc(NCCNc2ccc([N+](=O)[O-])cn2)nc1-c1ccc(OC(F)(F)F)cc1
18 | ≤ 1 µM | CCOC(=O)c1cnc(NCCNc2ccc([N+](=O)[O-])cn2)nc1-c1ccc([N+](=O)[O-])cc1
19 | ≤ 1 µM | CCOC(=O)c1cnc(NCCNc2ccc([N+](=O)[O-])cn2)nc1-c1ccc2c(c1)OCO2
20 | ≤ 1 µM | CCOC(=O)c1c(-c2ccncc2)nc(NCCNc2ccc([N+](=O)[O-])cn2)nc1-c1ccc(C(N)=O)cc1
21 | ≤ 10 µM | CCOC(=O)c1cnc(NCCNc2ccc([N+](=O)[O-])c(NCc3ccccc3)n2)nc1-c1ccc(C#N)cc1
22 | ≤ 1 µM | CN1CC(=O)N(c2cnc(NCCNc3ccc([N+](=O)[O-])c(N)n3)nc2-c2ccc(Cl)cc2Cl)C(=O)C1 [1-[2-({2-[(6-amino-5-nitro(2-pyridyl))amino]ethyl}-amino)-4-(2,4-dichlorophenyl)pyrimidin-5-yl]-4-methylpiperazine-2,6-dione]

Row | IC50 | SMILES
23 | ≤ 1 µM | CN(C)C1CC(=O)N(c2cnc(NCCNc3ccc([N+](=O)[O-])c(N)n3)nc2-c2ccc(Cl)cc2Cl)C1=O (centres unmarked) [1-[2-({2-[(6-amino-5-nitro(2-pyridyl))amino]ethyl}amino)-4-(2,4-dichlorophenyl)pyrimidin-5-yl]-3-(dimethylamino)pyrrolidine-2,5-dione]
24 | ≤ 1 µM | Nc1nc(NCCNc2ncc(N3C(=O)CC(N4CCOCC4)C3=O)c(-c3ccc(Cl)cc3Cl)n2)ccc1[N+](=O)[O-] (centres unmarked) [1-[2-({2-[(6-amino-5-nitro(2-pyridyl))amino]ethyl}amino)-4-(2,4-dichlorophenyl)pyrimidin-5-yl]-3-morpholin-4-ylpyrrolidine-2,5-dione]
25 | ≤ 1 µM | Nc1nc(NCCNc2ncc(N3C(=O)CCC3=O)c(-c3ccc(Cl)cc3Cl)n2)ccc1[N+](=O)[O-] [1-[2-({2-[(6-amino-5-nitro(2-pyridyl))amino]ethyl}amino)-4-(2,4-dichlorophenyl)pyrimidin-5-yl]-pyrrolidine-2,5-dione]
26 | ≤ 1 µM | CN1CC(=O)N(c2cnc(NCCNc3ccc([N+](=O)[O-])cn3)nc2-c2ccc(Cl)cc2Cl)C(=O)C1 [1-[4-(2,4-dichlorophenyl)-2-({2-[(5-nitro(2-pyridyl))amino]ethyl}amino)pyrimidin-5-yl]-4-methylpiperazine-2,6-dione]
27 | ≤ 10 µM | CN1CCN(c2ccc(NCCNc3ccc([N+](=O)[O-])c(N)n3)nc2-c2cccnc2)C(=O)C1 [1-{6-[2-(6-Amino-5-nitropyridin-2-ylamino)-ethylamino]-[2,3′]bipyridinyl-3-yl}-4-methyl-piperazin-2-one]
28 | ≤ 1 µM | CN(C)CCOC(=O)c1cnc(NCCNc2ccc([N+](=O)[O-])c(N)n2)nc1-c1ccc(Cl)cc1Cl [2-(dimethylamino)ethyl 2-({2-[(6-amino-5-nitro(2-pyridyl))amino]ethyl}amino)-4-(2,4-dichlorophenyl)pyrimidine-5-carboxylate]
29 | ≤ 10 µM | O=C(O)c1c(-c2ccccc2)nc(NCCNc2ccc([N+](=O)[O-])cn2)nc1-c1ccc([N+](=O)[O-])cc1 [2-({2-[(5-nitro(2-pyridyl))amino]ethyl}-amino)-6-(4-nitrophenyl)-4-phenylpyrimidine-5-carboxylic acid]
30 | ≤ 1 µM | N#Cc1cnc(NCCNc2ccc([N+](=O)[O-])cn2)nc1-c1ccccc1 [2-({2-[(5-nitro(2-pyridyl))amino]ethyl}amino)-4-phenylpyrimidine-5-carbonitrile]
31 | ≤ 10 µM | O=C(O)c1c(-c2ccncc2)nc(NCCNc2ccc([N+](=O)[O-])cn2)nc1-c1ccc([N+](=O)[O-])cc1 [2-({2-[(5-nitro(2-pyridyl))amino]ethyl}amino)-6-(4-nitrophenyl)-4-(4-pyridyl)pyrimidine-5-carboxylic acid]
32 | ≤ 10 µM | O=C(O)c1c(-c2ccc([N+](=O)[O-])cc2)nc(NCCNc2ccc([N+](=O)[O-])cn2)nc1-c1ccnc2ccccc12 [2-({2-[(5-nitro(2-pyridyl))amino]ethyl}amino)-6-(4-nitrophenyl)-4-(4-quinolyl)pyrimidine-5-carboxylic acid]
33 | ≤ 10 µM | O=C(O)c1c(-c2ccc([N+](=O)[O-])cc2)nc(NCCNc2ccc([N+](=O)[O-])cn2)nc1-c1ccc(C(F)(F)F)cc1 [2-({2-[(5-nitro(2-pyridyl))amino]ethyl}amino)-6-(4-nitrophenyl)-4-[4-(trifluoromethyl)phenyl]pyrimidine-5-carboxylic acid]
34 | ≤ 1 µM | N#Cc1cnc(NCCNc2ccc([N+](=O)[O-])c(N)n2)nc1-c1ccc(Cl)cc1Cl [2-({2-[(6-amino-5-nitro(2-pyridyl))amino]ethyl}amino)-4-(2,4-dichlorophenyl)pyrimidine-5-carbonitrile]
35 | ≤ 1 µM | Nc1nc(NCCNc2ncc(C(=O)O)c(-c3ccc(Cl)cc3Cl)n2)ccc1[N+](=O)[O-] [2-({2-[(6-amino-5-nitro(2-pyridyl))amino]ethyl}amino)-4-(2,4-dichlorophenyl)pyrimidine-5-carboxylic acid]
36 | ≤ 10 µM | N#Cc1cnc(NCCNc2ccc([N+](=O)[O-])c(N)n2)nc1-c1ccc(Cl)c(Cl)c1 [2-({2-[(6-amino-5-nitro(2-pyridyl))amino]ethyl}amino)-4-(3,4-dichlorophenyl)pyrimidine-5-carbonitrile]
37 | ≤ 1 µM | Nc1nc(NCCNc2ncc(N3C(=O)c4ccccc4C3=O)c(-c3ccc(Cl)cc3Cl)n2)ccc1[N+](=O)[O-] [2-[2-({2-[(6-amino-5-nitro(2-pyridyl))amino]ethyl}amino)-4-(2,4-dichlorophenyl)pyrimidin-5-yl]isoindoline-1,3-dione]
38 | ≤ 1 µM | N#Cc1ccc(-c2nc(NCCNc3ccc([N+](=O)[O-])cn3)ncc2C(=O)OCC(O)CN2CCOCC2)cc1 (centres unmarked) [2-hydroxy-3-morpholin-4-yl-propyl 4-(4-cyanophenyl)-2-({2-[(5-nitro(2-pyridyl))amino]ethyl}amino)pyrimidine-5-carboxylate]
39 | ≤ 1 µM | N#Cc1ccc(-c2nc(NCCNc3ccc([N+](=O)[O-])cn3)ncc2C(=O)OCCO)cc1 [2-hydroxyethyl 4-(4-cyanophenyl)-2-({2-[(5-nitro(2-pyridyl))-amino]ethyl}amino)pyrimidine-5-carboxylate]
40 | ≤ 1 µM | N#Cc1ccc(-c2nc(NCCNc3ccc([N+](=O)[O-])cn3)ncc2C(=O)OCCN2CCOCC2)cc1 [2-morpholin-4-ylethyl 4-(4-cyanophenyl)-2-({2-[(5-nitro(2-pyridyl))amino]ethyl}-amino)pyrimidine-5-carboxylate]
41 | ≤ 1 µM | CN(C)CCCOC(=O)c1cnc(NCCNc2ccc([N+](=O)[O-])cn2)nc1-c1ccc(C#N)cc1 [3-(dimethylamino)propyl 4-(4-cyanophenyl)-2-({2-[(5-nitro(2-pyridyl))amino]ethyl}amino)pyrimidine-5-carboxylate]
42 | ≤ 10 µM | O=[N+]([O-])c1ccc(NCCNc2nccc(-c3cccc(O)c3)n2)nc1 [3-[2-({2-[(5-nitro-2-pyridyl)amino]ethyl}-amino)pyrimidin-4-yl]phenol]
43 | ≤ 10 µM | N#Cc1cccc(-c2ccnc(NCCNc3ccc([N+](=O)[O-])cn3)n2)c1 [3-[2-({2-[(5-nitro-2-pyridyl)amino]ethyl}amino)pyrimidin-4-yl]benzenecarbonitrile]

Row | SMILES | IC50
44 | O=C(O)c1c(-c2ccc([N+](=O)[O-])cc2)nc(NCCNc2ccc([N+](=O)[O-])cn2)nc1-c1cccc([N+](=O)[O-])c1 [2-({2-[(5-nitro(2-pyridyl))amino]ethyl}amino)-4-(3-nitrophenyl)-6-(4-nitrophenyl)pyrimidine-5-carboxylic acid] | ≤ 10 µM
